{"source": "patent US11827655B2", "about": "“Triplet-triplet annihilation upconversion system, and compositions and methods thereof for drug delivery” (University of Massachusetts, priority 2017, dated 2023)", "assay": "Entrapment efficiency by absorbance", "type": "physicochemical", "settings": "sensitizer and emitter loading in TTA-MSNs", "protocol": "Next, TTA-MSNs were prepared dependence on the following steps. MSNs (50.0 mg) were dispersed 25 mL round flask in of BDP-F (2 mg), PEA (3 mg) and methyl oleate (150 mg) in THF (10 mL). The mixture solution was stirred until organic solvent evaporation (about 12 h) at room temperature in the dark condition. And then 10 mL PBS buffer was added. The mixture was ultrasonic shocked for 20 min. to make the nanoparticles dispersed in the PBS buffer. Then the BDP-F (sensitizer) and PEA (emitter)-loaded silica nanoparticles were low speed centrifuged (1000 rpm/min) for 5 min. The supernatant was collected and then extracted using dichloromethane (DCM). The DCM solvent containing BDP-F and PEA was used to measure sensitizer and emitter loading by collecting UV-vis absorption spectra using a molar absorption coefficient of 177500 M^−1 cm^−1 with)max=615 nm for BDP-F, 18000 M^−1cm^−1 with λmax=420 nm for PEA. Sensitizer and emitter loading were calculated using the following equation: Entrapment efficiency(%)=absorption of the loaded dye/absorption initial mass of the dye×100%.\nThe precipitate sample was extracted with 10 mL DCM. And then absorbance of Cou-C was measured to calculate the entrapment efficiency. Entrapment efficiency(%)=1−absorption of the unloaded prodrug/initial mass of the prodrug×100%.", "data": [{"smiles": "C(#Cc1c2ccccc2cc2ccccc12)c1ccccc1", "note": "[PEA, 9-phenylacetylene anthracene]", "values": [{"measurement": "entrapment efficiency", "value": 72, "unit": "%"}]}]}
